Test results from patent publication US20200179369A1, “TREATMENT OF DIABETIC NEPHROPATHY” (TAKEDA GMBH, priority 2015, published 2020).

Key:
[1] = system: uninephrectomized db/db mice; experiment: Diabetic nephropathy in uninephrectomized db/db mice, 8 week treatment starting 4 weeks after the uninephrectomy; type: in vivo; conditions: 8 weeks starting 4 weeks after uninephrectomy
Experimental: Male 5-week-old BKS.Cg-+Lepr^db/+Lepr^db (db/db) mice were purchased from CLEA Japan, Inc. All mice were fed with a standard diet (CE-2, CLEA Japan, Inc.) and tap water ad libitum.
Compound A was obtained from Takeda GmbH, Konstanz, Germany. Irbesartan was purchased from LKT Laboratories, Inc (USA).
In 6 week old male db/db mice an unilateral nephrectomy was performed. Under the anesthesia with isoflurane inhalation, the right kidney was removed from the mice. After 4-week recovery period, blood samples were obtained by the puncture of facial vein and blood level of glycosylated hemoglobin (GHb) was measured by automated HPLC-based GHb analyzer (HLC-723 G8, TOSOH, Japan). After the separation of plasma samples by centrifugation, also plasma levels of glucose (PG) were measured by Autoanalyzer 7180 (Hitachi, Japan). Urine samples were collected for a 8 h time-period using metabolic cages and urine creatinine level was measured by Autoanalyzer 7180. After desaltation of urine samples with PD MiniTrap G-25 column (GE healthcare, UK), urinary levels of albumin were measured by ELISA, and urinary albumin/creatinine ratio (UACR) was calculated.
Compound A (1, 3 and 10 mg/kg, QD), roflumilast (3 mg/kg, QD) and irbesartan (50 mg/kg, QD) were suspended in 0.5% methyl cellulose solution and orally administered to mice for 8 weeks starting 4 weeks after the uninephrectomy.
At the end of the 8 weeks once daily administration blood, plasma and urine samples were obtained according to the same methods as described above. GHb, PG, urinary creatinine and albumin were measured and UACR was calculated. Body weight (BW) was measured every week during the treatment.
For evaluation of the effects of Compound A, statistical differences between vehicle- and Compound A treated groups were analyzed with two-tailed Williams' test for PG and BW and two-tailed Shirley-Williams' test for UACR and GHb. The P-values less than 0.05 were considered statistically significant in two-tailed Williams' test or Shirley-Williams' test.
For roflumilast and irbesartan, statistical differences between vehicle- and compounds-treated groups were analyzed with Student's t-test for GHb, PG and BW and Welch test for UACR. The P-values less than 0.05 were considered statistically significant in Student's t-test and Welch test.

[2] = system: uninephrectomized db/db mice; experiment: Diabetic nephropathy in uninephrectomized db/db mice, 8 week treatment starting 12 weeks after the uninephrectomy; type: in vivo; conditions: 8 weeks starting 12 weeks after uninephrectomy
Experimental: The experimental protocol is similar to the experimental protocol described above with the exception that the 8 week treatment with Compound A or irbesartan was started not already at 4 weeks after the uninephrectomy, but only 12 weeks after the uninephrectomy (i.e. when the increase of urinary albumin/creatinine ratio (UACR) is already in a much more advanced stage). Roflumilast was not used as a comparator in this experiment.
Compound A (1, 3 and 10 mg/kg, QD) and irbesartan (50 and 100 mg/kg, QD) were suspended in 0.5% methyl cellulose solution and orally administered to mice for 8 weeks starting 12 weeks after the uninephrectomy.
For evaluation of the effects of Compound A, statistical differences between vehicle- and Compound A treated groups were analyzed with one-tailed Williams' test for GHB, PG and BW and one-tailed Shirley-Williams' test for UACR. For irbesartan, statistical differences between vehicle- and irbesartan treated groups were analyzed with one-tailed Williams' test for UACR, GHb, PG and BW. The P-values less than 0.025 were considered statistically significant in one-tailed Williams' test or one-tailed Shirley-Williams' test.

O=C(Nc1c(Cl)cncc1Cl)c1ccc(OC(F)F)c(OCC2CC2)c1 [roflumilast, reference compound]
effect on blood level of glycosylated hemoglobin (GHb) ([1]; 3 mg/kg QD oral): Almost no effect compared to the vehicle group
effect on increase of urinary albumin/creatinine ratio (UACR) ([1]; 3 mg/kg QD oral): mild and was not statistically significant
effect on plasma levels of glucose (PG) ([1]; 3 mg/kg QD oral): Almost no effect compared to the vehicle group

CCCCC1=NC2(CCCC2)C(=O)N1Cc1ccc(-c2ccccc2-c2nnn[nH]2)cc1 [irbesartan, 2-butyl-3-[p-(o-1H-tetrazol-5-ylphenyl)benzyl]-1,3-diazaspiro[4.4]non-1-en-4-one, reference compound]
effect on blood level of glycosylated hemoglobin (GHb) ([1]; 50 mg/kg QD oral): Almost no effect compared to the vehicle group
effect on increase of urinary albumin/creatinine ratio (UACR) ([1]; 50 mg/kg QD oral): tended to suppress the increase of UACR, but its effect was not statistically significant
effect on plasma levels of glucose (PG) ([1]; 50 mg/kg QD oral): Almost no effect compared to the vehicle group
effect on urinary albumin/creatinine ratio (UACR) ([2]; 50 mg/kg QD oral): significant suppression on increase in UACR
effect on urinary albumin/creatinine ratio (UACR) ([2]; 100 mg/kg QD oral): significant suppression on increase in UACR
effect on body weight (BW) ([2]; 50 and 100 mg/kg QD oral): Neither Compound A nor Irbesartan affected the body weight
effect on glucose plasma levels (PG) ([2]; 50 and 100 mg/kg QD oral): did not show inhibitory effects
effect on glycosylated hemoglobin (GHb) ([2]; 50 and 100 mg/kg QD oral): did not show inhibitory effects
